# “And” between values parts separate entries of the source, which are not always exact repeats. Identical values can stand only once.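 Each compound was tested at five concentrations against cells in 96-well plates for 48 hours. GI50 = concentration required for 50% inhibition of growth. The concentration for full growth arrest is given as TGI.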
# What was measured:
# Test in all cases: NCI tumour cell line growth inhibition, 48 h
# P388 leukemia = system: P388 leukemia
# MDA-N = system: MDA-N
# DLD-1 colon = system: DLD-1 colon
# SN12K1 renal = system: SN12K1 renal
# KM20L2 colon = system: KM20L2 colon
# DMS 114 small cell lung = system: DMS 114 small cell lung
# SNB-78 CNS = system: SNB-78 CNS
# DMS 273 small cell lung = system: DMS 273 small cell lung
# M19-MEL melanoma = system: M19-MEL melanoma
# P388/ADR leukemia = system: P388/ADR leukemia
# RXF-631 renal = system: RXF-631 renal
# XF 498 CNS = system: XF 498 CNS
SMILES,TGI (MDA-N) [µM],TGI (DLD-1 colon),TGI (KM20L2 colon),TGI (DMS 114 small cell lung),TGI (SNB-78 CNS),TGI (DMS 273 small cell lung),TGI (M19-MEL melanoma),TGI (RXF-631 renal) [µM],TGI (XF 498 CNS),other results
COc1cc2c(cc1OC)C(Cl)C(c1ccc(Br)cc1)=C2Cl (stereo not given),13.6,27.6 µM,41.3 µM,23.3 µM,32.6 µM,31.6 µM,36 µM,,,TGI (P388 leukemia): > 100 µM; TGI (SN12K1 renal): 29.4 µM; TGI (P388/ADR leukemia): > 100 µM
O=C1c2ccccc2C(=O)N1CC#CCO,,,,,> 100 µM,> 100 µM,> 100 µM,> 100,> 100 µM,
O=C(Nc1ccc(Br)cc1)C(=O)C(C(=O)c1ccc(Cl)c(Cl)c1)C1OC(=O)c2ccccc21 (stereo not given),,39.6 µM,> 100 µM,28.6 µM,> 100 µM,60 µM,31.1 µM,,96.2 µM,
CC(C)N1CC2CC(CN(C(=O)c3ccc(Cl)cc3)C2)C1,,,> 100 µM,> 100 µM,,> 100 µM,> 100 µM,> 100,> 100 µM,
Cc1ccc(/C=C2\CCCCC2=O)cc1,,> 100 µM,> 100 µM,> 100 µM,> 100 µM,> 100 µM,> 100 µM,> 100,> 100 µM,
Cc1cc(-c2ccccc2)nc(Nc2cc3ccccc3[nH]2)n1,,> 100 µM,> 100 µM,> 100 µM,> 100 µM,,> 100 µM,,> 100 µM,
O=[N+]([O-])c1ccc2c(c1)C(N1CCN(CCO)CC1)Cc1ccc(F)cc1S2 (stereo not given),24.1,,,,,,,,,
O=C(Nc1ccc(Br)c2ccccc12)c1ccc2ccccc2c1O,15.6,,,,,,,,,
C=CCC1(CN(C)C)CC/C(=C\c2ccc3c(c2)OCO3)C1=O (stereo not given),,81.1 µM,> 100 µM,,> 100 µM,> 100 µM,> 100 µM,78.4,,
NC(=O)NNC/C(Cl)=C(\Cl)C(=O)O,,> 100 µM,> 100 µM,> 100 µM,> 100 µM,> 100 µM,> 100 µM,,> 100 µM,
Nc1nc2cc(Cl)ccc2n1N,> 100,,,,,,,,,
Cc1ccc2ccccc2c1CSc1nc(N)nc2c1ncn2CC(C)C,> 100,,,,,,,,,
CC1(c2ccc(F)cc2)C2C(=O)NC(=O)C1C(=O)NC2=O (stereo not given),,> 100 µM,> 100 µM,> 100 µM,> 100 µM,> 100 µM,> 100 µM,,> 100 µM,
Oc1c(C(Nc2ccccn2)c2ccccc2)ccc2cccnc12 (stereo not given),> 100,,,,,,,,,
COC(=O)CC[C@@H](C)[C@H]1CC[C@H]2[C@@H]3CC[C@@H]4C[C@H](O)CC[C@]4(C)[C@H]3CC[C@]12C,35.6,,,,,,,,,
O=C(NC1CCC[C@H]1OC(=O)c1ccccc1)c1ccccc1 (stereo not given in full),,> 100 µM,,,> 100 µM,> 100 µM,> 100 µM,> 100,> 100 µM,
Clc1ccc2c(NC3CCC(N4CCCCC4)CC3)ccnc2c1 (stereo not given),33.2,,,,,,,,,

SMILES,TGI (MDA-N) [µM],TGI (DLD-1 colon),TGI (KM20L2 colon),TGI (DMS 114 small cell lung),TGI (SNB-78 CNS),TGI (DMS 273 small cell lung),TGI (M19-MEL melanoma),TGI (RXF-631 renal) [µM],TGI (XF 498 CNS),other results
CCCCCCCCCC1CC(=O)OC2=C1C(=O)CCC2 (stereo not given),,> 100 µM,> 100 µM,> 100 µM,> 100 µM,> 100 µM,> 100 µM,> 100,> 100 µM,
CC1C(c2ccccc2)N(C)C(c2ccccc2)C(C)C1(O)c1ccccc1 (stereo not given),,> 100 µM,> 100 µM,> 100 µM,> 100 µM,> 100 µM,> 100 µM,,,
Cc1cc(N(CCC#N)S(=O)(=O)c2ccccc2)ccc1C=Nc1ccc(C(=O)O)cc1,> 100,4.11 µM,28.6 µM,10.1 µM,34.7 µM,17.5 µM,7.32 µM,,22.5 µM,
COc1cc(/C=C2\[C@@H]3NC(Cc4c(OC)c(C)c(OC)c(OC)c43)C(=O)N2Cc2ccccc2)c(OC)c(C)c1OC,,> 100 µM,96.3 µM,> 100 µM,,> 100 µM,77.3 µM,> 100,,
CCCCCCCCCCCCCCNCC(OC)OC,,28.6 µM,28.8 µM,29.3 µM,34.3 µM,33 µM,32.3 µM,31.2,31.7 µM,
CCO/C=C\C12CCCC1NC(c1ccccc1)(c1ccccc1)O2 (stereo not given),,> 100 µM,57.9 µM,79.5 µM,> 100 µM,> 100 µM,64.5 µM,,,
O=C1OC(OC/C(Br)=C(\Br)COC2OC(=O)C(Cl)=C2Cl)C(Cl)=C1Cl (stereo not given),14.3,,,,,,,,,
CC1(C)CC(=O)C(CC2C(=O)CCCC2=O)C(=O)C1,,> 100 µM,> 100 µM,> 100 µM,> 100 µM,> 100 µM,> 100 µM,,> 100 µM,
CC1=C(CCC(C)CO)O[C@H]2C[C@H]3[C@@H]4CC[C@H]5C[C@@H](O)CC[C@]5(C)[C@H]4CC(=O)[C@]3(C)[C@@H]12 (stereo not given in full),45.4,,,,,,,,,
C=C1C(=O)O[C@@H]2/C=C(/C)[C@@H](OC(C)=O)C[C@@H](O)/C(C)=C\[C@@H](OC(=O)[C@]3(C)O[C@@H]3C)[C@@H]12,30.1,,,,,,,,,
COc1cc(C2c3cc4c(cc3[C@@H](NC3CCN(Cc5ccccc5)CC3)C3COC(=O)[C@H]23)OCO4)cc(OC)c1O (stereo not given in full),,3.11 µM and 2.26 µM,3.28 µM and 0.841 µM,1.96 µM and 0.316 µM,6.03 µM and 8.24 µM,0.558 µM and 0.18 µM,2.1 µM and 1.9 µM,,2.34 µM and 1.4 µM,GI50 (DMS 114 small cell lung): 0.169 µM and 0.0639 µM; GI50 (SNB-78 CNS): 2.04 µM and 0.887 µM; GI50 (XF 498 CNS): 0.377 µM and 0.132 µM; GI50 (DMS 273 small cell lung): 0.114 µM and 0.0219 µM
CC1(C)OCC2OC(n3cnc4c(N)nc(Cl)nc43)C(OS(C)(=O)=O)C2O1 (stereo not given),> 100,,,,,,,,,
CCC(=O)OCOc1ccc(/C=C2\CCC(CN(C)C)C2=O)cc1 (stereo not given),16.5,5.54 µM,32.6 µM,56.4 µM,31.5 µM,15.2 µM,11.1 µM,> 61.2,4.15 µM,
COc1cc2[nH]c3c(c2cc1OC)CCN[C@@]31CC[C@@]2(CC3c4c(cc(OC)c(O)c42)CCN3C)C[C@@H]1OC (stereo not given in full),35.9,> 100 µM,86.3 µM,37.2 µM,> 100 µM,> 100 µM,40 µM,25.2,32.4 µM,
CC12CCC(C1)C(C)(C)C2OC(=O)c1ccccc1N (stereo not given),29.7,,,,,,,,,
CC(=O)OC1CC2(C)C(=CC1C1SCCS1)CCC1C2CCC2(C)C(OC(C)=O)CCC12 (stereo not given),> 100,,,,,,,,,
COc1ccc(N=NC2=C(O)CCC2=O)cc1,,> 100 µM,,> 100 µM,> 100 µM,> 100 µM,> 100 µM,> 100,,

# From PubChem BioAssay (NCI)
